# Patent publication US11407740B2 (priority 2018, dated 2022)
# Tested on: E. coli
# Test: Bacterial susceptibility testing, MIC by broth microdilution (CLSI)
# Conditions: Escherichia coli, read-out: E. coli MIC, broth microdilution, 35° C., 18-24 h
# Experimental: Minimal inhibitory concentrations (MIC) were determined by the broth microdilution method in accordance with the Clinical and Laboratory Standards Institute (CLSI) guidelines. In brief, organism suspensions were adjusted to a 0.5 McFarland standard to yield a final inoculum between 3×10^3 and 7×10^5 colony-forming units (CFU)/mL. Drug dilutions and inocula were made in sterile, cation adjusted Mueller-Hinton Broth (Beckton Dickinson). An inoculum volume of 100 μL was added to wells containing 100 μL of broth with 2-fold serial dilutions of drug.
row,SMILES,MIC [µg/mL]
1,"N#C[C@@H]1CCN(Cc2ccc(C#Cc3ccc([C@@H](CNCC(F)F)Cc4nc[nH]c(=O)c4O)c(F)c3)cc2)C1 (single isomer, unassigned) [Compound 281]",< 1
2,"COC1CN(Cc2ccc(C#Cc3ccc([C@@H](CNCC(F)F)Cc4nc[nH]c(=O)c4O)c(F)c3)cc2)C1 (single isomer, unassigned) [Compound 282]",< 1
3,"O=c1[nH]cnc(C[C@H](CNCC(F)F)c2ccc(C#Cc3ccc(CN4CCOCC4)cc3)cc2F)c1O (single isomer, unassigned) [Compound 283]",< 1
4,"COC[C@@H](Cc1nc[nH]c(=O)c1O)c1ccc(C#Cc2ccc(CN[C@H]3CCOC3)cc2)cc1 (single isomer, unassigned) [Compound 285]",< 1
5,"COC[C@@H](Cc1nc[nH]c(=O)c1O)c1ccc(C#Cc2ccc(CN[C@H]3CCNC3)cc2)cc1 (single isomer, unassigned) [Compound 287]",1 to 8
6,"COC[C@@H](Cc1nc[nH]c(=O)c1O)c1ccc(C#Cc2ccc(CN[C@@H]3CCNC3)cc2)cc1 (single isomer, unassigned) [Compound 288]",1 to 8
7,"CS(=O)(=O)N[C@@H](Cc1nc[nH]c(=O)c1O)c1ccc(C#Cc2ccc(C3(O)CCNCC3)cc2)cc1 (single isomer, unassigned) [Compound 296]",8 to 32
8,"CS(=O)(=O)N[C@@H](Cc1nc[nH]c(=O)c1O)c1ccc(C#Cc2ccc(CN3CCNC[C@H]3CO)cc2)cc1 (single isomer, unassigned) [Compound 297]",8 to 32
9,"COC1CN(Cc2ccc(C#Cc3ccc([C@@H](Cc4nc[nH]c(=O)c4O)NS(C)(=O)=O)cc3)cc2)C1 (single isomer, unassigned) [Compound 299]",< 1
10,"CN(C[C@@H](Cc1nc[nH]c(=O)c1O)c1ccc(C#Cc2ccc(CN3CCOCC3)cc2)cc1)C1CC1 (single isomer, unassigned) [Compound 302]",< 1
11,"CC(=O)NC[C@@H](Cc1nc[nH]c(=O)c1O)c1ccc(C#Cc2ccc(CN3CCOCC3)cc2)cc1 (single isomer, unassigned) [Compound 303]",< 1
12,"CS(=O)(=O)NC[C@@H](Cc1nc[nH]c(=O)c1O)c1ccc(C#Cc2ccc(CN3CCOCC3)cc2)cc1 (single isomer, unassigned) [Compound 304]",< 1
13,CC(C)(O)C(Cc1nc[nH]c(=O)c1O)c1ccc(C#Cc2ccc(CN3CCOCC3)cc2)cc1 (centres unmarked) [Compound 1],1 to 8
14,O=c1[nH]cnc(CC(CO)c2ccc(C#Cc3ccc(CN4CCOCC4)cc3)cc2)c1O (centres unmarked) [Compound 2],< 1
15,O=c1[nH]cnc(CC(CNCCF)c2ccc(C#Cc3ccc(CN4CCOCC4)cc3)cc2)c1O (centres unmarked) [Compound 6],1 to 8
16,CC(O)C(Cc1nc[nH]c(=O)c1O)c1ccc(C#Cc2ccc(CN3CCOCC3)cc2)cc1 (centres unmarked) [Compound 12],1 to 8
17,NCC(Cc1nc[nH]c(=O)c1O)c1ccc(C#Cc2ccc(CN3CCOCC3)cc2)cc1 (centres unmarked) [Compound 18],1 to 8
18,O=C(NCCF)C(Cc1nc[nH]c(=O)c1O)c1ccc(C#Cc2ccc(CN3CCOCC3)cc2)cc1 (centres unmarked) [Compound 19],< 1
19,O=C(NCC(F)F)C(Cc1nc[nH]c(=O)c1O)c1ccc(C#Cc2ccc(CN3CCOCC3)cc2)cc1 (centres unmarked) [Compound 22],< 1
20,CNC(=O)C(Cc1nc[nH]c(=O)c1O)c1ccc(C#Cc2ccc(CN3CCOCC3)cc2)cc1 (centres unmarked) [Compound 23],< 1

row,SMILES,MIC [µg/mL]
1,COC(=O)C(Cc1nc[nH]c(=O)c1O)c1ccc(C#Cc2ccc(CN3CCOCC3)cc2)cc1 (centres unmarked) [Compound 24],< 1
2,O=C(NC1CC(F)(F)C1)C(Cc1nc[nH]c(=O)c1O)c1ccc(C#Cc2ccc(CN3CCOCC3)cc2)cc1 (centres unmarked) [Compound 25],1 to 8
3,CCOC(=O)C(Cc1nc[nH]c(=O)c1O)c1ccc(C#Cc2ccc(CNC3CCOC3)cc2)cc1 (centres unmarked) [Compound 26],1 to 8
4,COC(=O)C(Cc1nc[nH]c(=O)c1O)c1ccc(C#Cc2ccc(CNC3CCOC3)cc2)cc1 (centres unmarked) [Compound 27],1 to 8
5,CC(C#N)NC(=O)C(Cc1nc[nH]c(=O)c1O)c1ccc(C#Cc2ccc(CN3CCOCC3)cc2)cc1 (centres unmarked) [Compound 28],1 to 8
6,O=C(NCC(F)F)C(Cc1nc[nH]c(=O)c1O)c1ccc(C#Cc2ccc(Cn3ccnc3CO)cc2)cc1 (centres unmarked) [Compound 29],< 1
7,CC(CO)(Cc1nc[nH]c(=O)c1O)c1ccc(C#Cc2ccc(CN3CCOCC3)cc2)cc1 (centres unmarked) [Compound 31],< 1
8,N#CC1CCN(Cc2ccc(C#Cc3ccc([C@@H](CO)Cc4nc[nH]c(=O)c4O)cc3)cc2)C1 (some centres unmarked) [Compound 33],< 1
9,N#C[C@H]1CCN(Cc2ccc(C#Cc3ccc(C(CO)Cc4nc[nH]c(=O)c4O)cc3)cc2)C1 (some centres unmarked) [Compound 34],< 1
10,N#C[C@@H]1CCN(Cc2ccc(C#Cc3ccc(C(CO)Cc4nc[nH]c(=O)c4O)cc3)cc2)C1 (some centres unmarked) [Compound 36],< 1
11,O=c1[nH]cnc(CC(CO)c2ccc(C#Cc3ccc(CNC4C5COCC54)cc3)cc2)c1O (centres unmarked) [Compound 37],< 1
12,O=c1[nH]cnc(CC(CO)c2ccc(C#Cc3ccc(CNC4CCS(=O)(=O)C4)cc3)cc2)c1O (centres unmarked) [Compound 38],< 1
13,O=c1[nH]cnc(CC(CO)c2ccc(C#Cc3ccc(CN4CC5(CCCO5)C4)cc3)cc2)c1O (centres unmarked) [Compound 42],< 1
14,O=c1[nH]cnc(CC(CO)c2ccc(C#Cc3ccc(CN4CC5(COC5)C4)cc3)cc2)c1O (centres unmarked) [Compound 47],1 to 8
15,O=c1[nH]cnc(CC(CO)c2ccc(C#Cc3ccc(CNC4COC4)cc3)cc2)c1O (centres unmarked) [Compound 49],< 1
16,CCOC(=O)C(Cc1nc[nH]c(=O)c1O)c1ccc(C#Cc2ccc(CNC3COC3)cc2)cc1 (centres unmarked) [Compound 50],1 to 8
17,O=c1[nH]cnc(CC(CO)c2ccc(C#Cc3ccc(CN4CC(N5CCOCC5)C4)cc3)cc2)c1O (centres unmarked) [Compound 51],1 to 8
18,O=c1[nH]cnc(CC(CO)c2ccc(C#Cc3ccc(CNCC4CCOC4)cc3)cc2)c1O (centres unmarked) [Compound 52],1 to 8
19,O=c1[nH]cnc(CC(CO)c2ccc(C#Cc3ccc(CNC4CCOCC4)cc3)cc2)c1O (centres unmarked) [Compound 53],1 to 8
20,N=S1(=O)CCC(NCc2ccc(C#Cc3ccc(C(CO)Cc4nc[nH]c(=O)c4O)cc3)cc2)C1 (centres unmarked) [Compound 56],1 to 8

row,SMILES,MIC [µg/mL]
1,COCCNCc1ccc(C#Cc2ccc(C(CO)Cc3nc[nH]c(=O)c3O)cc2)cc1 (centres unmarked) [Compound 57],1 to 8
2,O=c1[nH]cnc(CC(CO)c2ccc(C#Cc3ccc(CNCC4CC4)cc3)cc2)c1O (centres unmarked) [Compound 58],1 to 8
3,CN1CCN(C(=O)c2ccc(C#Cc3ccc(C(CO)Cc4nc[nH]c(=O)c4O)cc3)cc2)CC1 (centres unmarked) [Compound 59],1 to 8
4,O=c1[nH]cnc(CC(CO)c2ccc(C#Cc3ccc(CNC4CC[S+]([O-])C4)cc3)cc2)c1O (centres unmarked) [Compound 60],1 to 8
5,CNCc1ccc(C#Cc2ccc(C(CO)Cc3nc[nH]c(=O)c3O)cc2)cc1 (centres unmarked) [Compound 61],1 to 8
6,NCc1ccc(C#Cc2ccc(C(CO)Cc3nc[nH]c(=O)c3O)cc2)cc1 (centres unmarked) [Compound 63],1 to 8
7,NC1(Cc2ccc(C#Cc3ccc(C(CO)Cc4nc[nH]c(=O)c4O)cc3)cc2)CCOCC1 (centres unmarked) [Compound 64],1 to 8
8,NC(Cc1nc[nH]c(=O)c1O)c1ccc(C#Cc2ccc(CN3CCOCC3)cc2)cc1 (centres unmarked) [Compound 65],< 1
9,COC1CN(CC(Cc2nc[nH]c(=O)c2O)c2ccc(C#Cc3ccc(CN4CCOCC4)cc3)cc2)C1 (centres unmarked) [Compound 71],< 1
10,CC(F)CNCC(Cc1nc[nH]c(=O)c1O)c1ccc(C#Cc2ccc(CN3CCOCC3)cc2)cc1 (centres unmarked) [Compound 74],< 1
11,O=c1[nH]cnc(CC(CN[C@H]2C[C@@H](F)C2)c2ccc(C#Cc3ccc(CN4CCOCC4)cc3)cc2)c1O (some centres unmarked) [Compound 75],< 1
12,O=c1[nH]cnc(CC(CN[C@H]2C[C@H](F)C2)c2ccc(C#Cc3ccc(CN4CCOCC4)cc3)cc2)c1O (some centres unmarked) [Compound 78],1 to 8
13,C[C@@H](CF)NCC(Cc1nc[nH]c(=O)c1O)c1ccc(C#Cc2ccc(CN3CC(C#N)C3)cc2)cc1 (some centres unmarked) [Compound 81],< 1
14,C[C@H](CF)NCC(Cc1nc[nH]c(=O)c1O)c1ccc(C#Cc2ccc(CN3CC(C#N)C3)cc2)cc1 (some centres unmarked) [Compound 83],< 1
15,CC(CC#N)NCC(Cc1nc[nH]c(=O)c1O)c1ccc(C#Cc2ccc(CN3CCOCC3)cc2)cc1 (centres unmarked) [Compound 97],< 1
16,COC1CN(Cc2ccc(C#Cc3ccc(C(CNCC(C)F)Cc4nc[nH]c(=O)c4O)cc3)cc2)C1 (centres unmarked) [Compound 101],< 1
17,N#CC1CN(CC(Cc2nc[nH]c(=O)c2O)c2ccc(C#Cc3ccc(CN4CCOCC4)cc3)cc2)C1 (centres unmarked) [Compound 102],< 1
18,O=c1[nH]cnc(CC(CNCCCF)c2ccc(C#Cc3ccc(CN4CCOCC4)cc3)cc2)c1O (centres unmarked) [Compound 105],< 1
19,O=c1[nH]cnc(CC(CNC2CC(F)(F)C2)c2ccc(C#Cc3ccc(CN4CCOCC4)cc3)cc2)c1O (centres unmarked) [Compound 112],< 1

# Same assay, conditions: broth microdilution, 35° C., 18-24 h
row,SMILES,E. coli MIC
1,O=C(NCCF)C(Cc1nc[nH]c(=O)c1O)c1ccc(C#Cc2ccc(CN3CCOCC3)cc2)cc1 (centres unmarked) [Compound 20],A (A: ≤1 μg/mL)
2,O=C(NCCF)C(Cc1nc[nH]c(=O)c1O)c1ccc(C#Cc2ccc(CN3CCOCC3)cc2)cc1 (centres unmarked) [Compound 21],B (B: >1 μg/mL to ≤8.0 μg/mL)
3,O=c1[nH]cnc(CC(CN[C@H]2C[C@@H](F)C2)c2ccc(C#Cc3ccc(CN4CCOCC4)cc3)cc2)c1O (some centres unmarked) [Compound 76],A (A: ≤1 μg/mL)
4,O=c1[nH]cnc(CC(CN[C@H]2C[C@@H](F)C2)c2ccc(C#Cc3ccc(CN4CCOCC4)cc3)cc2)c1O (some centres unmarked) [Compound 77],B (B: >1 μg/mL to ≤8.0 μg/mL)
5,O=c1[nH]cnc(CC(CN[C@H]2C[C@H](F)C2)c2ccc(C#Cc3ccc(CN4CCOCC4)cc3)cc2)c1O (some centres unmarked) [Compound 79],A (A: ≤1 μg/mL)
6,O=c1[nH]cnc(CC(CN[C@H]2C[C@H](F)C2)c2ccc(C#Cc3ccc(CN4CCOCC4)cc3)cc2)c1O (some centres unmarked) [Compound 80],A (A: ≤1 μg/mL)
7,O=c1[nH]cnc(CC(CNCCCF)c2ccc(C#Cc3ccc(CN4CCOCC4)cc3)cc2)c1O (centres unmarked) [Compound 106],B (B: >1 μg/mL to ≤8.0 μg/mL)
8,O=c1[nH]cnc(CC(CNCCCF)c2ccc(C#Cc3ccc(CN4CCOCC4)cc3)cc2)c1O (centres unmarked) [Compound 107],A (A: ≤1 μg/mL)
9,O=c1[nH]cnc(CC(CNC2CC(F)(F)C2)c2ccc(C#Cc3ccc(CN4CCOCC4)cc3)cc2)c1O (centres unmarked) [Compound 113],B (B: >1 μg/mL to ≤8.0 μg/mL)
